In patent US6774143B1, “Method for treating cells resistant to antineoplastic agents” (Novartis AG, priority 2003, dated 2004):

Tested on: HCT-15 human colon tumor xenograft
Test: Subcutaneous HCT-15 colon tumor model in athymic nude mice
Type: in vivo
Conditions: for body weight losses, highest reached: 2.5-15 mg/kg
Excerpt: All cell lines that are used in animal studies are free of Mycoplasma contamination (Rapid Detection System by Gen-Probe, Inc., San Diego, Calif.) and viral contamination (MAP testing by MA BioServices, Inc., Rockville, Md.). The HCT-15 human colon tumor cell line is purchased from the American Type Culture Collection, Rockville, Md., Accession Number ATCC CCL 225. The MIP 101 human colon tumor cell line is obtained from Dr. R. Kramer (Bristol Meyers Squibb) and was previously described (Niles R M, et al. Cancer Invest. 1987;5(6):545-52). These cells are Pgp-1 (human Pgp) overexpressors, making the cells resistant to paclitaxel. All cell lines are propagated and expanded in RPMI 1640 medium containing 10% heat-inactivated FBS (Life Technologies, Grand Island, N.Y.). Cell expansions for implantation are performed in T225 tissue culture flasks. Cells are harvested at 70-90% confluency, washed once with HBSS containing 10% FBS, and are suspended in plain HBSS.
Outbred athymic (nu/nu) female mice (“Hsd:Athymic Nude-nu” from Harlan Sprague Dawley, Indianapolis, Ind.) are anesthetized with Metofane (Mallinckrodt Veterinary, Inc., Mundelein, Ill.,). A cell suspension (100 μL) containing 1×10^6 cells is then injected sc into the right axillary (lateral) region of each animal. Tumors are allowed to grow until a volume of approximately 100 mm^3 was achieved. At this point, mice bearing tumors are sorted into groups of eight for the study. The sorting process produced groups balanced with respect to mean and range of tumor size.
Discodermolide is isolated from the sponge Discodermia dissoluta using the methods of (Gunasekera S P, et al. supra). Multiple batches of compound of similar purity (all>95% pure, as determined by mass spectrometry, and nuclear magnetic resonance analysis) are used throughout the various studies. Solid discodermolide is dissolved in pure ethanol to create a stock solution which is diluted just before dosing with Cremophor EL (Crm) and D5W to a final concentration of 16.7% Cremophor EL, 8.3% ethanol and 75% D5W. The compound is administered intravenously (iv). In the first study discodermolide is tested against both tumors at five different dosing schedules: (i.) 30 mg/kg dosed as two 15 mg/kg injections on day 1 of the experiment, (ii.) 30 mg/kg dosed as three 10 mg/kg injections on days 1, 2, and 3, (iii.) 15 mg/kg dosed as a single injection on day 1, (iv.) 20 mg/kg dosed as a 15 mg/kg injection on day 1, followed by a 5 mg/kg injection on day 11, and (v.) 10 mg/kg dosed as a 7.5 mg/kg injection on day 1 followed by a 2.5 mg/kg injection on day 11. In the second study discodermolide is dosed as one injection on the first day of the experiment, at 2.5 mg/kg, 5 mg/kg, 7.5 mg/kg, 10 mg/kg, 12.5 mg/kg, or 15 mg/kg. In addition the 7.5 mg/kg injection on day 1 followed by a 2.5 mg/kg injection on day 11 is repeated from the first study. The actual doses, regimens and routes of administration used for the specific models are discussed in each section separately. Positive control animals receive clinical formulations of paclitaxel (TAXOL) diluted 4-fold with D5W and administered iv once daily for five consecutive days. Vehicle control for paclitaxel is administered according to paclitaxel's schedule. In the first study vehicle controls for discodermolide (16.7% Cremophor EL, 8.3% ethanol and 75% D5W) are administered as three daily injections on days 1, 2, and 3, or as two injections on days 1, and 11. In the second study vehicle control for discodermolide is administered as a single injection on day 1.
Tumors are measured, and individual animal body weights are recorded once weekly. Standard experiments are conducted for 3 full weeks from the initial dosing.
Antitumor activity is expressed as % T/C (comparing Δ tumor volumes for treatment group to vehicle control group). […]

[1] = first study, 7.5 mg/kg day 1 + 2.5 mg/kg day 11
[2] = first study, discodermolide iv single 15 mg/kg injection on day 1
[3] = first study, two 15 mg/kg injections on day 1 (30 mg/kg total)
[4] = second study, 7.5 mg/kg day 1 + 2.5 mg/kg day 11

In the case of CC(=O)O[C@H]1C(=O)[C@@]2(C)[C@H]([C@H](OC(=O)c3ccccc3)[C@]3(O)C[C@H](OC(=O)[C@H](O)[C@@H](NC(=O)c4ccccc4)c4ccccc4)C(C)=C1C3(C)C)[C@]1(OC(C)=O)CO[C@@H]1C[C@@H]2O [paclitaxel, reference compound], the T/C (first study, paclitaxel 15 mg/kg daily for the first 5 days) is reported as 95%, the T/C (second study, paclitaxel iv once daily for five days) is reported as 94% and the T/C (third study, paclitaxel iv once daily for five days) is reported as 81%.

For C=C/C=C\[C@H](C)[C@H](OC(N)=O)[C@@H](C)[C@H](O)[C@@H](C)C/C(C)=C\[C@H](C)[C@@H](O)[C@@H](C)/C=C\[C@@H](O)C[C@@H]1OC(=O)[C@H](C)[C@@H](O)[C@H]1C [discodermolide, (+)-Discodermolide], the “inhibition of tumor growth (in words)” value (HCT-15 xenograft, athymic nude mice) was “statistically significant (p<0.01) and reproducible inhibition of tumor growth”, the T/C [1] was 31% and the body weight loss [1] was 17.3%. For the same compound, the “fate of the remaining four animals” value (first study, 15 mg/kg day 1 + 5 mg/kg day 11) was “sacrificed due to the excessive body weight loss”, the “animals that die in the second week” value (first study, 15 mg/kg day 1 + 5 mg/kg day 11, group of eight) was “Four animals” and the “fate of the animals” value (first study, 30 mg/kg as three 10 mg/kg injections on days 1, 2, 3, all animals) was “sacrificed in the beginning of the third week of the experiment due to excessive body weight loss”. For the same compound, the T/C [2] was 43%, the body weight loss [2] was 18.9% and the T/C [3] was 22%. For the same compound, the body weight loss [3] was 24.6%, the “body weight losses, highest reached” value (original dose response study (second)) was 13% and the “body weight losses, highest reached” value (repeat of the dose response study (third experiment)) was 23%. It also gave a T/C [4] of 29%, a body weight loss [4] of 11.4% and a T/C (second study, single injection 2.5 mg/kg day 1) of 62%. For the same compound, the body weight change (second study, single injection 2.5 mg/kg, gain) was 3.5%, the body weight change (second study, single injection 5 mg/kg) was −1.9% and the T/C (second study, single injection 5 mg/kg day 1) was 44%. The body weight change (second study, single injection 7.5 mg/kg) was −7.9%, the T/C (second study, single injection 7.5 mg/kg day 1) was 43% and the body weight change (second study, single injection 10 mg/kg) was −8.5%. For the same compound, the T/C (second study, single injection 10 mg/kg day 1) was 40%, the body weight change (second study, single injection 12.5 mg/kg) was −12.9% and the T/C (second study, single injection 12.5 mg/kg day 1) was 28%. For the same compound, the body weight change (second study, single injection 15 mg/kg) was −11.0%, the T/C (second study, single injection 15 mg/kg day 1) was 27% and the T/C (third study, single injection 2.5 mg/kg day 1) was 54%. It also gave a body weight change (third study, single injection 2.5 mg/kg, gain) of 1.7%, a body weight change (third study, single injection 5 mg/kg) of −8.9% and a T/C (third study, single injection 5 mg/kg day 1) of 43%. It also gave a body weight change (third study, single injection 7.5 mg/kg) of −23.3%, a T/C (third study, single injection 7.5 mg/kg day 1) of 23% and a body weight change (third study, single injection 10 mg/kg) of −17.6%. For the same compound, the T/C (third study, single injection 10 mg/kg day 1) was 27%, the body weight change (third study, single injection 12.5 mg/kg) was −20.1% and the T/C (third study, single injection 12.5 mg/kg day 1) was 25%. It also gave a body weight change (third study, single injection 15 mg/kg) of −13.4% and a T/C (third study, single injection 15 mg/kg day 1) of 19%.
